Experimental data taken from US6555692B1, “Preparation and use of bifunctional molecules having DNA sequence binding specificity” (California Institute of Technology, priority 1996, dated 2003).

Experiments:
[1] = tested on: 5′-AACCAAGTCTTGGTA-3′; experiment: Association constants, recognition of 15 base pairs; conditions: for Ka 5′-AACCAAGTCTTGGTA-3′: Table 7, C3-OH polyamides, match site; for Specificity 5′-AACCAACTGTTGGTA-3′: Table 7, center mismatch; for Specificity 5′-AACCAAGTCTTGCGA-3′: Table 7, edge mismatch; for Specificity Center mismatch: match vs 5′-AACCAACTGTTGGTA-3′; for Specificity Edge mismatch: match vs 5′-AACCAAGTCTTGCGA-3′
[2] = tested on: 5 to 10 base pair sites based on a 5′-TGACA-3′ core sequence; experiment: Footprint titration of three- to eight-ring polyamide dimers (Table 2); format: binding; conditions: 22° C., pH 7.0
Excerpt: To determine the effect of polyamide length on binding site size, binding affinity, and sequence specificity, a series of six polyamides containing three to eight rings was synthesized. (Kelly, et al. Proc. Natl. Acad. Sci. U.S.A. 93, 6981-6985 (1996).) The series is based on ImPyPy-Dp with pyrrolecarboxamide moieties added sequentially to the C-termini to afford ImPyPyPy-Dp, ImPyPyPyPy-Dp, ImPyPyPyPyPy-Dp, ImPyPyPyPyPyPy-Dp, and ImPyPyPyPyPyPyPy-Dp which are designed to bind 5 to 10 base pair sites, respectively as side-by-side antiparallel dimers. DNA binding sites are based on a 5′-TGACA-3′ core sequence and contain sequential A,T inserts in the center of the binding site that will be recognized by the additional pyrrole carboxamides.

[3] = tested on: 5′-TGTCAAGACA-3′; experiment: Recognition of 9-11 base pairs (Table 9); format: binding; conditions: 22° C. and pH 7.0
Excerpt: (§1) Table 9 illustrates recognition of recognition of 9-11 base pairs by ImPyPy-X-ImPyPy-β-Dp.

[4] = tested on: 5′-TGTCAAAGACA-3′; experiment: Recognition of 9-11 base pairs (Table 9); format: binding; conditions: 22° C. and pH 7.0
Excerpt: as §1

[5] = tested on: 5′-gcggtTGTCAacccg-3′; experiment: Recognition of 9-11 base pairs (Table 9); format: binding; conditions: 22° C. and pH 7.0
Excerpt: as §1

[6] = tested on: 5′-TGTCAGACA-3′; experiment: Recognition of 9-11 base pairs (Table 9); format: binding; conditions: 22° C. and pH 7.0
Excerpt: as §1

[7] = Table 6, ImImPy-γ-PyPyPy-X-ImPyPy-β-Dp
[8] = Table 5, ImPyPy-X-ImImPy-γ-PyPyPy-β-Dp, 24° C., pH 7.0

## Cn1cc(NC(=O)c2cc(NC(=O)c3cc(NC(=O)CCCNC(=O)c4cc(NC(=O)c5nc(NC(=O)c6nc(NC(=O)CCCCCNC(=O)c7cc(NC(=O)c8cc(NC(=O)c9nccn9C)cn8C)cn7C)cn6C)cn5C)cn4C)cn3C)cn2C)cc1C(=O)NCCCO [ImPyPy-C6-ImImPy-γ-PyPyPy-C3—OH]
[1]
  Ka 5′-AACCAAGTCTTGGTA-3′: 3 × 10^7
  Specificity 5′-AACCAACTGTTGGTA-3′: 2
  Specificity 5′-AACCAAGTCTTGCGA-3′: 2

## CN(C)CCCNC(=O)c1cc(NC(=O)c2cc(NC(=O)c3cc(NC(=O)c4cc(NC(=O)c5cc(NC(=O)c6cc(NC(=O)c7nccn7C)cn6C)cn5C)cn4C)cn3C)cn2C)cn1C [ImPyPyPyPyPyPy-Dp]
[2]
  specificity (ratio of match site affinity to affinity of the single base pair mismatch site): 2.8-fold
[2]; mean of at least three footprint titrations
  association constant: 4.7e+07 M⁻¹

## CN(C)CCCNC(=O)CCNC(=O)c1cc(NC(=O)c2cc(NC(=O)c3nc(NC(=O)CCCCCCNC(=O)c4cc(NC(=O)c5cc(NC(=O)c6nccn6C)cn5C)cn4C)cn3C)cn2C)cn1C [ImPyPy-C7-ImPyPy-β-Dp]
[3]
  5′-TGTCAAGACA-3′: 1 × 10^8
[4]
  5′-TGTCAAAGACA-3′: 3 × 10^7
[5]
  5′-gcggtTGTCAacccg-3′: 7 × 10^7
[6]
  5′-TGTCAGACA-3′: 2 × 10^7

## CN(C)CCCNC(=O)CCNC(=O)c1cc(NC(=O)c2cc(NC(=O)c3nc(NC(=O)CCCCCCNC(=O)c4cc(NC(=O)c5cc(NC(=O)c6cc(NC(=O)CCCNC(=O)c7cc(NC(=O)c8nc(NC(=O)c9nccn9C)cn8C)cn7C)cn6C)cn5C)cn4C)cn3C)cn2C)cn1C [ImImPy-γ-PyPyPy-C7-ImPyPy-β-Dp, ImImPy-γ-PyPyPy-X-ImPyPy-β-Dp]
[1]; [7]
  Ka Match: 1e+09 M⁻¹
[1]; Table 6
  Specificity Center mismatch: 1
  Specificity Edge mismatch: 1

## Cn1cc(NC(=O)c2cc(NC(=O)c3cc(NC(=O)CCCNC(=O)c4cc(NC(=O)c5nc(NC(=O)c6nc(NC(=O)CCNC(=O)CCNC(=O)c7cc(NC(=O)c8cc(NC(=O)c9nccn9C)cn8C)cn7C)cn6C)cn5C)cn4C)cn3C)cn2C)cc1C(=O)NCCCO [ImPyPy-β-β-ImImPy-γ-PyPyPy-C3—OH]
[1]
  Ka 5′-AACCAAGTCTTGGTA-3′: 1 × 10^8
  Specificity 5′-AACCAACTGTTGGTA-3′: 3
  Specificity 5′-AACCAAGTCTTGCGA-3′: 3

## CN(C)CCCNC(=O)CCNC(=O)c1cc(NC(=O)c2cc(NC(=O)c3nc(NC(=O)CCNC(=O)CCNC(=O)c4cc(NC(=O)c5cc(NC(=O)c6cc(NC(=O)CCCNC(=O)c7cc(NC(=O)c8nc(NC(=O)c9nccn9C)cn8C)cn7C)cn6C)cn5C)cn4C)cn3C)cn2C)cn1C [ImImPy-γ-PyPyPy-β-β-ImPyPy-β-Dp, ImImPy-γ-PyPyPy-X-ImPyPy-β-Dp]
[1]; [7]
  Ka Match: 1e+10 M⁻¹
[1]; Table 6
  Specificity Center mismatch: 1
  Specificity Edge mismatch: 1

## CN(C)CCCNC(=O)CCNC(=O)c1cc(NC(=O)c2cc(NC(=O)c3nc(NC(=O)CCCCCNC(=O)c4cc(NC(=O)c5cc(NC(=O)c6cc(NC(=O)CCCNC(=O)c7cc(NC(=O)c8nc(NC(=O)c9nccn9C)cn8C)cn7C)cn6C)cn5C)cn4C)cn3C)cn2C)cn1C [ImImPy-γ-PyPyPy-C6-ImPyPy-β-Dp, ImImPy-γ-PyPyPy-X-ImPyPy-β-Dp]
[1]; [7]
  Ka Match: 2e+08 M⁻¹
[1]; Table 6
  Specificity Center mismatch: 1
  Specificity Edge mismatch: 2

## CN(C)CCCNC(=O)CCNC(=O)c1cc(NC(=O)c2cc(NC(=O)c3cc(NC(=O)CCCNC(=O)c4cc(NC(=O)c5nc(NC(=O)c6nc(NC(=O)CCCCCCCNC(=O)c7cc(NC(=O)c8cc(NC(=O)c9nccn9C)cn8C)cn7C)cn6C)cn5C)cn4C)cn3C)cn2C)cn1C [ImPyPy-C8-ImImPy-γ-PyPyPy-β-Dp, ImPyPy-X-ImImPy-γ-PyPyPy-β-Dp]
[1]; [8]
  Ka Match: 2e+08 M⁻¹
[1]; Table 5
  Specificity Center mismatch: 10
  Specificity Edge mismatch: 10

## CN(C)CCCNC(=O)CCNC(=O)c1cc(NC(=O)c2cc(NC(=O)c3nc(NC(=O)CCCCNC(=O)c4cc(NC(=O)c5cc(NC(=O)c6cc(NC(=O)CCCNC(=O)c7cc(NC(=O)c8nc(NC(=O)c9nccn9C)cn8C)cn7C)cn6C)cn5C)cn4C)cn3C)cn2C)cn1C [ImImPy-γ-PyPyPy-C5-ImPyPy-β-Dp, ImImPy-γ-PyPyPy-X-ImPyPy-β-Dp]
[1]; [7]
  Ka Match: 1e+09 M⁻¹
[1]; Table 6
  Specificity Center mismatch: 2
  Specificity Edge mismatch: 2

## Cn1cc(NC(=O)c2cc(NC(=O)c3cc(NC(=O)CCCNC(=O)c4cc(NC(=O)c5nc(NC(=O)c6nc(NC(=O)CCCCNC(=O)c7cc(NC(=O)c8cc(NC(=O)c9nccn9C)cn8C)cn7C)cn6C)cn5C)cn4C)cn3C)cn2C)cc1C(=O)NCCCO [ImPyPy-C5-ImImPy-γ-PyPyPy-C3—OH]
[1]
  Ka 5′-AACCAAGTCTTGGTA-3′: 3 × 10^7
  Specificity 5′-AACCAACTGTTGGTA-3′: >3
  Specificity 5′-AACCAAGTCTTGCGA-3′: >3

## CN(C)CCCNC(=O)CCNC(=O)c1cc(NC(=O)c2cc(NC(=O)c3cc(NC(=O)CCCNC(=O)c4cc(NC(=O)c5nc(NC(=O)c6nc(NC(=O)CCCCNC(=O)CCNC(=O)c7cc(NC(=O)c8cc(NC(=O)c9nccn9C)cn8C)cn7C)cn6C)cn5C)cn4C)cn3C)cn2C)cn1C [ImPyPy-β-C5-ImImPy-γ-PyPyPy-β-Dp, ImPyPy-X-ImImPy-γ-PyPyPy-β-Dp]
[1]; [8]
  Ka Match: 1e+08 M⁻¹
[1]; Table 5
  Specificity Center mismatch: 2
  Specificity Edge mismatch: 2

## CN(C)CCCNC(=O)CCNC(=O)c1cc(NC(=O)c2cc(NC(=O)c3cc(NC(=O)CCCNC(=O)c4cc(NC(=O)c5nc(NC(=O)c6nc(NC(=O)CCCCNC(=O)c7cc(NC(=O)c8cc(NC(=O)c9nccn9C)cn8C)cn7C)cn6C)cn5C)cn4C)cn3C)cn2C)cn1C [ImPyPy-C5-ImImPy-γ-PyPyPy-β-Dp, ImPyPy-X-ImImPy-γ-PyPyPy-β-Dp]
[1]; [8]
  Ka Match: 4e+08 M⁻¹
[1]; Table 5
  Specificity Center mismatch: 11
  Specificity Edge mismatch: 19
